The values that follow are results of earlier work, collected in patent publication US20110034442A1, “Use and Methods of Use for an Antagonist of the Serotin3 Receptor (5-HT3) and a Selective Modulator of Chloride Channels for the Treatment of Addiction to or Dependence on Medicines/Drugs or Nervous System Disorders” (priority 2007, published 2011).

SMILES strings stand for the structures. Structures can show the parent of a compound that is named as a salt. Where two headings read alike, the source gives them in different places.

The conditions of data set [1]: in vivo.
For data set [2], the system named is adolescents who had alcohol dependence. To be noted: 4 microg/kg b.i.d.
A further data set addresses T1, 5-HT3 receptors (Homo sapiens, UniProt P46098).
T1 sequence (P46098 24-478): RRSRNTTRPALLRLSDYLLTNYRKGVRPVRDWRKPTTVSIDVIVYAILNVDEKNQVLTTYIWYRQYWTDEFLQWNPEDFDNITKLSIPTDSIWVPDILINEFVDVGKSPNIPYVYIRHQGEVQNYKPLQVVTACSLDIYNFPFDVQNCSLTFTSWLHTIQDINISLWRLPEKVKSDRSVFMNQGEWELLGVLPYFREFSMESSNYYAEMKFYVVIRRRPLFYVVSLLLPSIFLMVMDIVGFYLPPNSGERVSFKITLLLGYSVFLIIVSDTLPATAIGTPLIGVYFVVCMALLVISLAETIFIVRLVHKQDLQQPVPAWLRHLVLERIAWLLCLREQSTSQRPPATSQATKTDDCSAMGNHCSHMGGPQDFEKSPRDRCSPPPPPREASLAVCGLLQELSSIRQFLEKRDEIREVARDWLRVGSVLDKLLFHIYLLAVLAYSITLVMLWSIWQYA
To be noted: in vivo.

Assay in data set [3]: not given
This is another data set of the same source.

The test system of data set [4] is cocaine-dependent men and women.
For data set [5] the following is noted: flumazenil 10 mg/kg, ondansetron 0.3 mg/kg, R(−)-alpha-metylhistamine 10 mg/kg.
Data set [6] relates to mice. Conditions: 0.1 and 1 mg/kg PO.
The next data set relates to early-onset alcoholism. To be noted: 16 microg/kg twice daily; early-onset compared with late-onset alcoholism.
The conditions of data set [7]: pre-treatment 12 mg orally over 24 h; amphetamine 15 mg orally.
Assay in data set [8]: not given
The source holds these as a separate data set.

The test system of a further data set is Wistar rats. Conditions: 0.1, 0.5, 1, 2 mg/kg intra-peritoneally, 30 minutes prior to d-amphetamine.
The subject of data set [9] is mice.
For the next data set, the system named is healthy males. To be noted: pretreatment, nine healthy males.
The test system of data set [10] is alcohol dependent subjects. Conditions: 4 microg/kg b.i.d.
Data set [11] concerns rats.
The test system of the next data set is healthy human volunteers. Conditions: pretreatment 0.15 mg/kg i.v.; oral D-amphetamine 0.5 mg/kg; subjects with robust responses.
The next data set has as its system K+-evoked [3H]ACh efflux. Conditions: slices from rat entorhinal cortex preloaded with [3H]choline.
For data set [12] the following is noted: in vivo. This is another data set of the same source.
The conditions of data set [13]: in vivo. This is another data set of the same source.
For data set [14] the following is noted: pH 7.4.
Data set [15] deals with alcohol-dependent subjects. Conditions: 15 alcohol-dependent subjects.
Another data set concerns acetylcholine release. To be noted: GABA(A) receptor antagonist given with ondansetron; rat frontal cortex.
Another data set deals with rat. Conditions: elevated plus maze.
Data set [16] concerns rats. To be noted: rats receiving combined cocaine-diazepam compared to cocaine alone or diazepam alone.
Data set [17] relates to alpha(4)-subunit gene expression. Conditions: ethanol withdrawal.
The conditions of data set [18]: in contrast to naltrexone.

With `Cc1nccn1CC1CCc2c(c3ccccc3n2C)C1=O` (racemic) [ondansetron, (±)1,2,3,9-tetrahydro-9-methyl-3-[(2-methyl-1H-imidazol-1-yl)methyl]-4H-carbazol-4-one, monohydrochlororide, dehydrate], in data set [1], the “increased behavioral suppression following withdrawal from ethanol, nicotine and cocaine” value is on record as “highly effective inhibitor”. Moreover, the “craving, Adolescent Obsessive-Compulsive Drinking Scale” value in [2] is “reduction”. The drinks per day result in [2] (8 weeks) is given as “significant decrease”. Further, the safety and tolerability result in data set [2] (oral, 8 weeks, 12 adolescents) is “safe and well tolerated”. The “cocaine intake the following day” value (administered 30 min before the cocaine session) was “no effect”. Also, the “cocaine self-administration the following day” value (given 3.5 h after intravenous cocaine self-administration) was “attenuate self-administration the following day”. For the same molecule, the “cocaine self-administration and sensitization” value (given after each second cocaine regimen dose or during the second withdrawal period) was “inhibited”. In addition, the “changes of the self-stimulation” value in the data set on male rats was “did not cause any substantial changes”. For the same molecule, on 5-HT3 receptors, the “antagonism of the effects of amphetamine” value is reported as “did not antagonize the effects of amphetamine”. Besides, the “expression of sensitization and tolerance” value in [3] (administered during withdrawal from intermittent and continuous cocaine) was “blockade of the expression of sensitization and tolerance”. Moreover, in data set [3] (continuous cocaine group), the “development of behavioral tolerance” value is “attenuated the development of behavioral tolerance”. Also, the development of sensitization entry in data set [3] (daily injections with cocaine, inverted U-shape dose-response curve) is listed as “significantly blocked the development of sensitization”. Besides, in [3] (daily injections, saline control subjects), the “subsequent behavioral response to cocaine” value is “no consistent or significant effect”. In addition, the “tolerability, adverse events” value in data set [4] (0.25 mg, 1.0 mg, or 4.0 mg twice daily, 10 weeks) is reported as “well tolerated, causing no serious adverse events”. Moreover, the “dropout rate among all treatment groups” value in [4] (4.0 mg twice daily) was “lowest dropout rate”. Further, the “percentage of participants with a cocaine-free week compared with the placebo group” value in data set [4] (4.0 mg twice daily, p=0.02) is “greater rate of improvement”. In addition, the “attenuation of scopolamine-induced deficits” value (from here on “attenuation”) in data set [5] is “neither flumazenil 10 mg/kg, ondansetron 0.3 mg/kg nor R(−)-alpha-metylhistamine 10 mg/kg attenuated”. In the data set with mice [6], the “number of shocks taken” value is on record as “increased”. Moreover, in the data set on early-onset alcoholism, the “alleviation of overall mood disturbance, fatigue, vigor, confusion/bewilderment and depression” value was “greater therapeutic efficacy”. Moreover, the “amphetamine-induced decrease in self-ratings of hunger” value in [7] is reported as “significantly attenuated”. For the same molecule, the “solubility in water and normal saline” value in data set [8] (racemic form, water and normal saline) is given as “soluble”. In the data set with Wistar rats, the average stereotypic score entry was “decreased”; the “mean number of head dippings and crossings in the hole board test” value is given as “significantly decreased”. Moreover, the “anxiolytic action compared to naive mice” value in the data set with mice [9] (0.01, 0.1 and 1 mg/kg i.p.) was “significant anxiolytic action”. For the same molecule, the “potency compared to diazepam” value in the data set on mice [9] (diazepam 1 mg/kg) is “less potent”. Moreover, in the data set on healthy males, the “effects of amphetamine on blood pressure or psychomotor performance tests” value is listed as “not on blood pressure or psychomotor performance tests”; the “effects of amphetamine on hunger and subjective state” value was “attenuated”. Besides, the overall craving result in [10] (early-onset alcoholics) is “reduced overall craving significantly”. Moreover, the overall craving result in [10] (late-onset alcoholics, compared with placebo) is reported as “not late-onset alcoholics”. The “anxiolytic action during withdrawal from chronic chlordiazepoxide” value in the data set with rats [11] (rats (Rezazadeh 1992)) is on record as “mixed results”. Moreover, the “efficacy in reversing various aspects of benzodiazepine withdrawal” value with rats [11] (rats, three tests, flumazenil given during chronic chlordiazepoxide (Prather 1993)) is reported as “Inconsistent results”. The “activation-euphoria responses to D-amphetamine” value in the data set on healthy human volunteers is listed as “attenuated responses”. Also, the “K+-evoked [3H]ACh efflux” value with K+-evoked [3H]ACh efflux is reported as “concentration-dependent increase”. In [12], the “ensuing facilitation of self-stimulation after high-dose nicotine” value is listed as “not the ensuing facilitation”, the “initial depression of self-stimulation by high-dose nicotine” value is “reduced the initial depression” and the self-stimulation entry is “no effect”.
Take `CN1[C@@H]2CC[C@H]1C[C@@H](OC(=O)c1cc(Cl)cc(Cl)c1)C2` [MDL 72222]: the “K+-evoked [3H]ACh efflux” value in the data set on K+-evoked [3H]ACh efflux is listed as “concentration-dependent increase”.
On to `C[C@@H](N)Cc1c[nH]cn1` [R(−)-alpha-metylhistamine], for which the “attenuation” value in [5] is reported as “neither flumazenil 10 mg/kg, ondansetron 0.3 mg/kg nor R(−)-alpha-metylhistamine 10 mg/kg attenuated”.
For the molecule `O=Cc1c(N2CCN(Cc3ccc4c(c3)OCO4)CC2)[nH]c2ccccc12` [VA21B7, 3-[2-(4′-piperonylpiperazinyl)indolyl]carboxaldehyde], in [13], the “release of suppressed behavior” value was “able to release suppressed behavior”.
As for `CCOC(=O)c1ncn2c1CN(C)C(=O)c1cc(F)ccc1-2` [flumazenil, ethyl 8-fluoro-5,6-dihydro-5-methyl-6-oxo-4H-imidazo[1,5-a](1,4)benzodiazepine-3-carboxylate], in data set [14], the “octanol:buffer partition coefficient” value is 14 to 1. For the same molecule, the “anxiolytic or anxiogenic effect” value in [15] is “neither anxiolytic nor anxiogenic”. For the same molecule, the “changes of the self-stimulation” value in the data set with male rats is reported as “did not cause any substantial changes”. Further, the “attenuation” value in data set [5] is reported as “neither flumazenil 10 mg/kg, ondansetron 0.3 mg/kg nor R(−)-alpha-metylhistamine 10 mg/kg attenuated”. Further, the “peak increase of acetylcholine release over basal levels” value with acetylcholine release was 259%. Besides, in the data set on rat, the anxiolytic effects entry is listed as “did not produce any anxiolytic effects” and the “decrease in open arm entries produced by withdrawal from ethanol treatment” value was “blocked these changes”. Further, the “seizures and incidence of death” value in the data set on rats [16] is “unmask seizures and increase the incidence of death”. Besides, the “solubility in acidic aqueous solutions” value in data set [8] (acidic aqueous solutions) is “slightly soluble”. The solubility in water result in data set [8] (water) was “insoluble”. The “up-regulation of alpha(4)-subunit gene expression” value in [17] is “selectively prevented the up-regulation”. The “K+-evoked [3H]ACh efflux” value in the data set on K+-evoked [3H]ACh efflux is recorded as “enhanced”.
Turning to `CN1C2CCCC1CC(NC(=O)c1nn(C)c3ccccc13)C2` (centres unmarked) [granisetron], the “K+-evoked [3H]ACh efflux” value in the data set on K+-evoked [3H]ACh efflux was “concentration-dependent increase”.
`C=C1CC[C@@]2(O)[C@H]3Cc4ccc(O)c5c4[C@@]2(CCN3CC2CC2)[C@H]1O5` [nalmefene, 17(cyclopropylmethyl)-4,5-alpha-epoxy-6-methylenemorphinan-3,14-diol,hydrochloride salt]: the hepatocellular injury result in [18] is on record as “does not cause hepatocellular injury”.
